Source: US20230329236A1, “HERBICIDAL PYRIMIDINE DERIVATIVES” (MoA Technology Limited, priority 2020, published 2023)

What was measured:
[1] = system: spring wheat (TRZAS); assay: Post-emergence glasshouse test, visual injury, TRZAS; type: in vivo; conditions: Table 4, post-emergence, 14±1 days post application
Method: (§1) Seeds of a variety of test species are grown in a sandy loam soil mixture, Lolium multiflorum (LOLMU), Amaranthus retroflexus (AMARE), Echinochloa crus-gaffi (ECHCG), Veronica persica (VERPE), Glycine max (GLXMA), Oryza sativa (ORYSA), Zea mays (ZEAMX), spring wheat (TRZAS), Ipomoea hederacea (IPOHE), Ipomoea purpurea (PHBPU), Stellaria media (STEME), Solanum nigrum (SOLNI), Digitaria sanguinalis (DIGSA), Setaria italica (SETIT), Alopecurus myosuroides (ALOMY) and Avena fatua (AVEFA).
(§2) After sowing, at growth stage BBCH 12-14 (post-emergence), the plants are sprayed with an aqueous spray solution derived from the formulation of the technical active ingredient in acetone/water (50:50) solution containing 0.5% Tween 20 (polyoxyethlyene sorbitan monolaureate, CAS RN 9005-64-5). The test compounds are applied at the required concentration of active ingredient in g/ha. The test plants are then grown in a glasshouse under controlled environmental conditions and watered regularly as required. After 14±1 days post application (for post-emergence test), the test is evaluated by assessing the percentage damage caused to the plants in comparison with the untreated plots. The biological activities for post-emergence testing are shown below (Table 3 and Table 4) as a % visual injury.

[2] = system: Digitaria sanguinalis (DIGSA); assay: Post-emergence glasshouse test, visual injury, DIGSA; type: in vivo; conditions: Table 4, post-emergence, 14±1 days post application
Method: as §1, §2

[3] = system: Amaranthus retroflexus (AMARE); assay: Post-emergence glasshouse test, visual injury, AMARE; type: in vivo; conditions: 336 h, 14±1 days post application
Outline: (§3)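 Post-emerg. spray, BBCH 12-14; acetone/water 50:50 + 0.5% Tween 20; rate as g a.i./ha. Glasshouse, sandy loam soil. Read: % visual injury vs untreated, 14±1 d after application.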

[4] = system: Lolium multiflorum (LOLMU); assay: Post-emergence glasshouse test, visual injury, LOLMU; type: in vivo; conditions: 336 h, 14±1 days post application
Outline: as §3

[5] = system: Veronica persica (VERPE); assay: Post-emergence glasshouse test, visual injury, VERPE; type: in vivo; conditions: 336 h, 14±1 days post application
Outline: as §3

[6] = system: Glycine max (GLXMA); assay: Post-emergence glasshouse test, visual injury, GLXMA; type: in vivo; conditions: Table 4, post-emergence, 14±1 days post application
Method: as §1, §2

[7] = system: Stellaria media (STEME); assay: Post-emergence glasshouse test, visual injury, STEME; type: in vivo; conditions: Table 4, post-emergence, 14±1 days post application
Method: as §1, §2

[8] = system: Zea mays (ZEAMX); assay: Post-emergence glasshouse test, visual injury, ZEAMX; type: in vivo; conditions: Table 4, post-emergence, 14±1 days post application
Method: as §1, §2

[9] = system: Setaria italica (SETIT); assay: Post-emergence glasshouse test, visual injury, SETIT; type: in vivo; conditions: Table 4, post-emergence, 14±1 days post application
Method: as §1, §2

[10] = system: Solanum nigrum (SOLNI); assay: Post-emergence glasshouse test, visual injury, SOLNI; type: in vivo; conditions: Table 4, post-emergence, 14±1 days post application
Method: as §1, §2

[11] = system: Ipomoea hederacea (IPOHE); assay: Post-emergence glasshouse test, visual injury, IPOHE; type: in vivo; conditions: Table 4, post-emergence, 14±1 days post application
Method: as §1, §2

[12] = system: Alopecurus myosuroides (ALOMY); assay: Post-emergence glasshouse test, visual injury, ALOMY; type: in vivo; conditions: Table 4, post-emergence, 14±1 days post application
Method: as §1, §2

[13] = system: Echinochloa crus-gaffi (ECHCG); assay: Post-emergence glasshouse test, visual injury, ECHCG; type: in vivo, Echinochloa crus-galli; conditions: 336 h, 14±1 days post application
Outline: as §3

[14] = system: Avena fatua (AVEFA); assay: Post-emergence glasshouse test, visual injury, AVEFA; type: in vivo; conditions: Table 4, post-emergence, 14±1 days post application
Method: as §1, §2

[15] = system: Oryza sativa (ORYSA); assay: Post-emergence glasshouse test, visual injury, ORYSA; type: in vivo; conditions: Table 4, post-emergence, 14±1 days post application
Method: as §1, §2

[16] = system: Ipomoea purpurea (PHBPU); assay: Post-emergence glasshouse test, visual injury, PHBPU; type: in vivo; conditions: Table 4, post-emergence, 14±1 days post application
Method: as §1, §2

[17] = Table 4, post-emergence, 125 g/ha
[18] = Table 4, post-emergence, 250 g/ha

Cc1cc(-c2cnc(NC3CCCC3)nc2C(C)C)on1 [Compound 45]
60%: pest or weed control at 250 g/ha [4, 18] | IPOHE % visual injury ([11]; 1000 g/ha) | AVEFA % visual injury ([14]; 500 g/ha)
95%: DIGSA % visual injury ([2]; 500 g/ha) | pest or weed control at 125 g/ha ([3]; Table 4, post-emergence) | SETIT % visual injury ([9]; 500 g/ha) | SETIT % visual injury ([9]; 1000 g/ha)
50%: GLXMA % visual injury ([6]; 250 g/ha) | GLXMA % visual injury ([6]; 1000 g/ha) | SETIT % visual injury ([9]; 125 g/ha) | IPOHE % visual injury ([11]; 250 g/ha) | ALOMY % visual injury ([12]; 125 g/ha) | ALOMY % visual injury ([12]; 500 g/ha) | ORYSA % visual injury ([15]; 125 g/ha) | PHBPU % visual injury ([16]; 125 g/ha)
40%: TRZAS % visual injury ([1]; 1000 g/ha) | pest or weed control at 125 g/ha [4, 17] | GLXMA % visual injury ([6]; 500 g/ha) | ZEAMX % visual injury ([8]; 1000 g/ha) | IPOHE % visual injury ([11]; 500 g/ha) | AVEFA % visual injury ([14]; 250 g/ha)
70%: DIGSA % visual injury ([2]; 250 g/ha) | pest or weed control at 500 g/ha ([4]; Table 3, post-emergence) | ZEAMX % visual injury ([8]; 500 g/ha) | ALOMY % visual injury ([12]; 250 g/ha) | pest or weed control at 125 g/ha [13, 17] | AVEFA % visual injury ([14]; 1000 g/ha) | PHBPU % visual injury ([16]; 250 g/ha) | PHBPU % visual injury ([16]; 500 g/ha) | PHBPU % visual injury ([16]; 1000 g/ha)
0%: TRZAS % visual injury ([1]; 125 g/ha) | ZEAMX % visual injury ([8]; 125 g/ha) | ZEAMX % visual injury ([8]; 250 g/ha) | IPOHE % visual injury ([11]; 125 g/ha) | AVEFA % visual injury ([14]; 125 g/ha)
100%: pest or weed control at 500 g/ha ([3]; Table 3, post-emergence) | pest or weed control at 500 g/ha ([3]; Table 4, post-emergence) | pest or weed control at 1000 g/ha ([3]; Table 4, post-emergence) | pest or weed control at 1000 g/ha ([4]; Table 4, post-emergence) | pest or weed control at 500 g/ha ([5]; Table 3, post-emergence) | pest or weed control at 125 g/ha ([5]; Table 4, post-emergence) | pest or weed control at 250 g/ha ([5]; Table 4, post-emergence) | pest or weed control at 500 g/ha ([5]; Table 4, post-emergence) | pest or weed control at 1000 g/ha ([5]; Table 4, post-emergence) | STEME % visual injury ([7]; 125 g/ha) | STEME % visual injury ([7]; 250 g/ha) | STEME % visual injury ([7]; 500 g/ha) | STEME % visual injury ([7]; 1000 g/ha) | SOLNI % visual injury ([10]; 250 g/ha) | SOLNI % visual injury ([10]; 500 g/ha) | SOLNI % visual injury ([10]; 1000 g/ha) | pest or weed control at 500 g/ha ([13]; Table 3, post-emergence)
80%: DIGSA % visual injury ([2]; 125 g/ha) | SETIT % visual injury ([9]; 250 g/ha) | ALOMY % visual injury ([12]; 1000 g/ha) | pest or weed control at 250 g/ha [13, 18] | pest or weed control at 500 g/ha ([13]; Table 4, post-emergence) | ORYSA % visual injury ([15]; 1000 g/ha)
98%: DIGSA % visual injury ([2]; 1000 g/ha) | SOLNI % visual injury ([10]; 125 g/ha)
20%: GLXMA % visual injury ([6]; 125 g/ha)
30%: TRZAS % visual injury ([1]; 250 g/ha) | TRZAS % visual injury ([1]; 500 g/ha)
99%: ORYSA % visual injury ([15]; 250 g/ha)
90%: pest or weed control at 250 g/ha ([3]; Table 4, post-emergence) | pest or weed control at 500 g/ha ([4]; Table 4, post-emergence) | pest or weed control at 1000 g/ha ([13]; Table 4, post-emergence) | ORYSA % visual injury ([15]; 500 g/ha)

Cc1cc(-c2cnc(NCc3ccncc3)nc2C2CC2)on1 [Compound 20]
70%: pest or weed control at 500 g/ha ([5]; Table 4, post-emergence)
50%: pest or weed control at 500 g/ha ([3]; Table 4, post-emergence) | pest or weed control at 125 g/ha ([5]; Table 4, post-emergence) | GLXMA % visual injury ([6]; 1000 g/ha) | ZEAMX % visual injury ([8]; 250 g/ha) | ZEAMX % visual injury ([8]; 500 g/ha) | ORYSA % visual injury ([15]; 125 g/ha)
60%: pest or weed control at 250 g/ha ([5]; Table 4, post-emergence) | ORYSA % visual injury ([15]; 250 g/ha) | ORYSA % visual injury ([15]; 1000 g/ha)
40%: GLXMA % visual injury ([6]; 500 g/ha) | STEME % visual injury ([7]; 500 g/ha) | ZEAMX % visual injury ([8]; 1000 g/ha)
80%: pest or weed control at 500 g/ha ([3]; Table 3, post-emergence)
30%: TRZAS % visual injury ([1]; 500 g/ha) | pest or weed control at 500 g/ha ([5]; Table 3, post-emergence) | GLXMA % visual injury ([6]; 125 g/ha) | STEME % visual injury ([7]; 250 g/ha) | IPOHE % visual injury ([11]; 1000 g/ha) | ORYSA % visual injury ([15]; 500 g/ha)
90%: pest or weed control at 1000 g/ha ([3]; Table 4, post-emergence) | pest or weed control at 1000 g/ha ([5]; Table 4, post-emergence)
0%: TRZAS % visual injury ([1]; 125 g/ha) | TRZAS % visual injury ([1]; 250 g/ha) | pest or weed control at 125 g/ha ([3]; Table 4, post-emergence) | pest or weed control at 250 g/ha ([3]; Table 4, post-emergence) | pest or weed control at 500 g/ha ([4]; Table 3, post-emergence) | STEME % visual injury ([7]; 125 g/ha) | IPOHE % visual injury ([11]; 125 g/ha) | IPOHE % visual injury ([11]; 250 g/ha) | IPOHE % visual injury ([11]; 500 g/ha) | pest or weed control at 500 g/ha ([13]; Table 3, post-emergence)
20%: TRZAS % visual injury ([1]; 1000 g/ha) | GLXMA % visual injury ([6]; 250 g/ha) | ZEAMX % visual injury ([8]; 125 g/ha)
95%: STEME % visual injury ([7]; 1000 g/ha)

Cc1cc(-c2cnc(NCc3ccncc3)nc2C(C)C)on1 [Compound 18]
90%: pest or weed control at 1000 g/ha ([3]; Table 3, post-emergence)
60%: pest or weed control at 1000 g/ha ([4]; Table 3, post-emergence)
30%: pest or weed control at 1000 g/ha ([13]; Table 3, post-emergence)
99%: pest or weed control at 1000 g/ha ([5]; Table 3, post-emergence)
